{"source": "paper PMC11539218", "about": "(Antimicrobial Agents and Chemotherapy, 2024)", "key": {"[1]": {"tested_on": "L. (L.) infantum promastigotes", "assay": "Mitochondrial membrane electric potential (JC-1, flow cytometry)", "type": "cell-based, Leishmania (L.) infantum", "settings": "compound 1 169.2 µM, CCCP 10 µM; 2 and 4 h; JC-1 BL-2/BL-1 ratio; vs untreated", "description": "Promastigotes (2 × 10^6/well) were treated with compound 1 (169.2 µM) for 2 and 4 h, at 24°C. Then, JC-1 (10 µM) was added and the parasites were incubated for 20 min. Fluorescence was measured in a flow cytometer with an excitation wavelength of 488 nm and emission of 530 (BL-1) and 574 nm (BL-2). Mitochondrial membrane potential was established through the ratio of BL-2/BL-1 channels ([19]). Carbonyl cyanide m-chlorophenylhydrazone (CCCP) (10 µM) was employed as positive control and untreated parasites as negative control."}, "L. (L.) donovani": {"tested_on": "L. (L.) donovani", "design": "method as in PMID 29061745", "settings": "with subsequent increase in Ca2+ and collapse of mitochondrial membrane potential; cited from earlier work"}, "[2]": {"tested_on": "L. (L.) infantum promastigotes", "assay": "Cell cycle (propidium iodide, flow cytometry)", "type": "cell-based, Leishmania (L.) infantum", "settings": "24 h; compound 1 169.2 µM, miltefosine 25 µM", "description": "Promastigotes (2 × 10^6/well) in exponential phase, were treated with compound 1 (169.2 µM) in M199 medium supplemented with 10% FBS and 0.25% hemin, pH 7.2, for 24 h at 24°C. In sequence, 70% (vol/vol) ice-cold ethanol was used for cell permeabilization overnight at −20°C. Then, the parasites were incubated with propidium iodide (10 µg/mL) and RNase A (20 µg/mL) for 30 min. […] Miltefosine (25 µM) was employed as positive control and untreated parasites as negative control ([25])."}, "[3]": {"design": "method as in PMID 34695563", "settings": "plasma half-life; cited from earlier work"}, "[4]": {"tested_on": "L. (L.) infantum promastigotes", "type": "cell-based, Leishmania (L.) infantum", "settings": "compound 1 169.2 µM, sodium azide 10 mM; 2 and 4 h; H2DCFDA; vs untreated", "description": "Promastigotes (2 × 10^6/well) were treated with compound 1 (169.2 µM) for 2 and 4 h, at 24°C. Later, H2DCFDA (5 µM) was added and the parasites were incubated for 15 min. Fluorescence was monitored in a spectrofluorometer with excitation and emission wavelengths of 485 and 535 nm, respectively ([19]). Sodium azide (10 mM) was employed as positive control and untreated parasites as negative control."}, "[5]": {"tested_on": "L. (L.) infantum promastigotes", "assay": "DNA content / integrity (agarose gel electrophoresis)", "type": "cell-based, Leishmania (L.) infantum", "settings": "compound 1 169.2 µM, H2O2 10 mM; 24 h; 2% agarose gel", "description": "Promastigotes (1 × 10^7/well) were treated with compound 1 (169.2 μM) in M199 medium supplemented with 10% FBS and 0.25% hemin, pH 7.2, for 24 h at 24°C. Then, the genetic material was extracted using the QIAamp DNA Mini Kit, according to the manufacturer’s instructions. Total DNA quantification was performed in a NanoDrop ND-1000 spectrophotometer (260/280 nm). The purified genetic material (300 ng) was analyzed by electrophoresis for 1 h at […] in a 2% agarose gel with ethidium bromide (0.5 µg/mL). Visualization was performed under UV light in a MiniBIS Pro transilluminator (DNR Bio Imaging System) ([21]). H2O2 (10 mM) was employed as positive control and untreated parasites as negative control ([26])."}, "[6]": {"tested_on": "Peritoneal macrophages infected with L. (L.) infantum", "assay": "Cytokines in infected macrophages (ELISA)", "type": "cell-based, BALB/c mice", "settings": "positive control 5 µg/mL", "description": "L. (L.) infantum (MHOM/BR/1972/LD) promastigotes were maintained in M199 medium supplemented with 10% FBS and 0.25% hemin, pH 7.2 at 24°C. Amastigotes were isolated from golden hamsters (M. auratus) by differential centrifugation of infected spleens and the parasite’s number was determined according to Stauber ([14]). Peritoneal macrophages were obtained from the peritoneal cavity of BALB/c mice and maintained in RPMI-1640 medium supplemented with 10% FBS, pH 7.2 at 37°C.\nPeritoneal macrophages (1 × 10^6/well) were infected with L. (L.) infantum […] (10:1 amastigotes/macrophage) for 24 h, at 37°C with 5% CO2. Subsequently, compound 1 (10 and 60 µM) was added and the incubation followed the same conditions described above. Cell supernatants were collected after 48 and 72 h and the cytokines (IL-4, IL-10, IL-12, and INF-γ) were measured using the BD OptEIA Mouse ELISA set kits, according to the manufacturer’s instructions. Concanavalin A (5 µg/mL) was employed as positive control and untreated cells as negative control."}, "[7]": {"tested_on": "L. (L.) infantum promastigotes", "assay": "Plasma membrane permeability (Sytox Green)", "type": "cell-based, Leishmania (L.) infantum", "settings": "compound 1 169.2 µM, Triton X-100 0.5%, up to 4 h", "description": "Promastigotes (2 × 10^6/well) were pretreated with Sytox Green (1 µM) for 15 min, at 24°C. Then, compound 1 (169.2 µM) was added and the fluorescence was monitored every 20 min up to 4 h in a spectrofluorometer, with excitation and emission wavelengths of 485 and 535 nm, respectively ([17]). Triton X-100 (0.5% vol/vol) was employed as positive control and untreated parasites as negative control ([18])."}}, "data": [{"molecule": "N#CC(C#N)=NNc1cccc(Cl)c1", "note": "[CCCP, Carbonyl cyanide m-chlorophenylhydrazone, reference compound]", "values": [{"measurement": "mitochondrial membrane electric potential (ΔΨm)", "setting": "[1]", "result": "Maximum depolarization"}]}, {"molecule": "CCCCCCCCCCCCCCCCOP(=O)([O-])OCC[N+](C)(C)C", "note": "[Miltefosine, reference compound]", "values": [{"measurement": "effect on acidocalcisomes", "setting": "L. (L.) donovani", "result": "alkalinization of acidocalcisomes"}, {"measurement": "Proportion of parasites in different phases of the cell cycle (% ± SD): G0/G1", "setting": "[2]", "result": "53.8 ± 0.1", "unit": "%"}, {"measurement": "Proportion of parasites in different phases of the cell cycle (% ± SD): M/G2", "setting": "[2]", "result": "18.1 ± 0.4", "unit": "%"}, {"measurement": "Proportion of parasites in different phases of the cell cycle (% ± SD): S", "setting": "[2]", "result": "10.5 ± 0.3", "unit": "%"}, {"measurement": "Proportion of parasites in different phases of the cell cycle (% ± SD): Sub G0", "setting": "[2]", "result": "7.1 ± 0.6", "unit": "%"}, {"measurement": "T1/2", "setting": "[3]", "result": "approximately 126 h"}]}, {"molecule": "[N-]=[N+]=[N-].[Na+]", "note": "[sodium azide, Sodium azide, reference compound]", "values": [{"measurement": "ROS levels", "setting": "[4]", "result": "increased ROS production"}]}, {"molecule": "OO", "note": "[H2O2, reference compound]", "values": [{"measurement": "integrity of the genetic content (DNA)", "setting": "[5]", "result": "DNA fragmentation"}]}, {"molecule": "concanavalin A [reference compound]", "values": [{"measurement": "production of cytokines (IL-4, IL-10, IL-12, INF-γ)", "setting": "[6]", "result": "tendency to increase"}]}, {"molecule": "Triton X-100 [reference compound]", "values": [{"measurement": "plasma membrane permeability", "setting": "[7]", "result": "significative permeabilization"}]}]}
